Measured values published in patent publication US12521393B2, “Cytotoxicity targeting chimeras for CCR2-expressing cells” (GLAXOSMITHKLINE INTELLECTUAL PROPERTY DEVELOPMENT LIMITED, priority 2021, dated 2026).

How the values were obtained:
[1] = tested on: CCR2 expressing cells (CD11b+Ly6c+Hi) in peripheral blood; test: In vivo depletion assay, flow cytometry of peripheral blood (Example 201); design: species or system human CCR2 knock-in mice (C57 background); conditions: hCCR2 knock-in mice, IV 0.1 mpk compound + 10 mpk anti-cotinine antibody (SEQ ID NO: 13/14), peripheral blood at 48 hr
In short: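 Mice dosed with compound formulated in saline/DMSO/PBS, with anti-cotinine antibody (rabbit variable region, mouse IgG2a Fc) where required, pre-incubated 30 min at room temperature. Terminal peripheral blood RBC-lysed, Fc-blocked, stained for CD45, CD3, CD11b, Ly6C, human CCR2 and 7AAD; percent depletion of CD11b+Ly6c+Hi cells determined by flow cytometry.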

[2] = biological target: human alpha1 nicotinic acetylcholine (nACh) receptor (Homo sapiens, UniProt P02708); test: Nicotinic acetylcholine receptor antagonism assay, IONFlux automated patch clamp (Example 203); assay type: cell-based; conditions: for IC50: antagonism of ACh-stimulated human alpha1 nAChR current, patch clamp; for Emax at 100 µM: maximum percentage antagonism at maximum concentration tested 100 μM; for Emax at 10 µM: maximum percentage antagonism at maximum concentration tested 10 μM
human alpha1 nicotinic acetylcholine (nACh) receptor, sequence (P02708 21-457): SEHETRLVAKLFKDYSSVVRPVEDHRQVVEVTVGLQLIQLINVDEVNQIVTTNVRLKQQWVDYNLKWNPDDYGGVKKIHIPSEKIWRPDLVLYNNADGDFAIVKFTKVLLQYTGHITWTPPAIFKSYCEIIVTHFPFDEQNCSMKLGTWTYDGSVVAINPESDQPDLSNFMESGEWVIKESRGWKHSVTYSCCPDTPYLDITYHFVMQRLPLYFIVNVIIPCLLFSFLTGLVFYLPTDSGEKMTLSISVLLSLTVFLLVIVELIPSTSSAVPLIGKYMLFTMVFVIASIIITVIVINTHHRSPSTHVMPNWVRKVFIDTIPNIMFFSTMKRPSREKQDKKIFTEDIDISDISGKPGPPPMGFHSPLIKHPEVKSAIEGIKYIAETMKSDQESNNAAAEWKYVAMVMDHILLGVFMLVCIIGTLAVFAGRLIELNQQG
human alpha1 nicotinic acetylcholine (nACh) receptor, sequence (P11230 24-501 partner): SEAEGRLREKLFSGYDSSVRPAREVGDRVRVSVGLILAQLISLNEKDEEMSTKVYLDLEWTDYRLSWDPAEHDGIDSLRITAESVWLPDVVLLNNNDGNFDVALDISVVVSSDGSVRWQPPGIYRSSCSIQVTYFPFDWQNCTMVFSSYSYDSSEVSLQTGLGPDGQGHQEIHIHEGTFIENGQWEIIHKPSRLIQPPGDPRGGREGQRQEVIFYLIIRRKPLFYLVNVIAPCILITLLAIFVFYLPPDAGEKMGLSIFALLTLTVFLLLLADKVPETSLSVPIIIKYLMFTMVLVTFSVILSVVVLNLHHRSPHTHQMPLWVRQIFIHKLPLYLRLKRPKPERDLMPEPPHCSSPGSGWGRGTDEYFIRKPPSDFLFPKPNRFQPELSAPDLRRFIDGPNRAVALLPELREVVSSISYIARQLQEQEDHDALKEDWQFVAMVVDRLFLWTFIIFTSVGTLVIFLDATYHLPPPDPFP
human alpha1 nicotinic acetylcholine (nACh) receptor, sequence (Q07001 22-517 partner): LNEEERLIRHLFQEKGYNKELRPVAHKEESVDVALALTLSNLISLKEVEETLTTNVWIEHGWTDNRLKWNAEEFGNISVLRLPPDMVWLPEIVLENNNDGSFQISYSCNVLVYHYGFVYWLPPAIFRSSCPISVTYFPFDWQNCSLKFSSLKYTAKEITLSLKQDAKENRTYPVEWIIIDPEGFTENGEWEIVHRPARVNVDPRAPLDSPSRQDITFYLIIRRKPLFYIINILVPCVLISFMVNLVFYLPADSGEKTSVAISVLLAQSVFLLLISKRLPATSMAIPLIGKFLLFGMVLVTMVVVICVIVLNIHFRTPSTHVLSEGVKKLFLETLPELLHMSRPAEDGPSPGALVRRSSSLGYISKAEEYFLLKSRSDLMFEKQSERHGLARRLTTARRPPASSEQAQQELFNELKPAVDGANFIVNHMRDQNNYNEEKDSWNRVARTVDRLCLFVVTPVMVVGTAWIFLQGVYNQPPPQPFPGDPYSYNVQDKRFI
In short: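 Cells expressing human α1 nAChR were incubated with a compound dose response (top 10 μM or 100 μM), then stimulated with ACh (10 mM), and peak current was read by automated patch clamp. % inhibition was taken against ACh-alone control, corrected for vehicle and run-down, and fit non-linearly for IC50; runs were averaged.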

SMILES	% Depletion of CCR2 expressing cells [1] [%]	IC50 [2] [µM]	Emax at 100 µM ([2]; read-out: Maximum Response) [%]	Emax at 33.33 µM ([2]; maximum percentage antagonism at maximum concentration tested 33.33 μM, read-out: Maximum Response) [%]	Emax at 10 µM ([2]; read-out: Maximum Response) [%]
CC(C)N(C)[C@@H]1CC[C@H](N2CC[C@H](Nc3ncnc4ccc(C(F)(F)F)cc34)C2=O)[C@H](NC(=O)[C@H]2CC[C@H](NC(=O)CCCO[C@H]3CC[C@H](OCCNC(=O)[C@H]4CC(=O)N(C)[C@@H]4c4cccnc4)CC3)CC2)C1 [Example 1, (2S,3S)-N-(2-(((1R,4S)-4-(4-(((1R,4R)-4-(((1R,2S,5R)-5-(Isopropyl(methyl)amino)-2-((S)-2-oxo-3-((6-(trifluoromethyl)quinazolin-4-yl)amino)pyrrolidin-1-yl)cyclohexyl)carbamoyl)cyclohexyl)amino)-4-oxobutoxy)cyclohexyl)oxy)ethyl)-1-methyl-5-oxo-2-(pyridin-3-yl)pyrrolidine-3-carboxamide]	88.5	84.6	25.6	–	–
CC(C)N(C)[C@@H]1CC[C@H](N2CC[C@H](Nc3ncnc4ccc(C(F)(F)F)cc34)C2=O)[C@H](NC(=O)[C@H]2CC[C@@H](NC(=O)CCCO[C@H]3CC[C@H](OCCNC(=O)[C@H]4CC(=O)N(C)[C@@H]4c4cccnc4)CC3)CC2)C1 [Example 5, (2S,3S)-N-(2-(((1R,4S)-4-(4-(((1S,4S)-4-(((1R,2S,5R)-5-(Isopropyl(methyl)amino)-2-((S)-2-oxo-3-((6-(trifluoromethyl)quinazolin-4-yl)amino)pyrrolidin-1-yl)cyclohexyl)carbamoyl)cyclohexyl)amino)-4-oxobutoxy)cyclohexyl)oxy)ethyl)-1-methyl-5-oxo-2-(pyridin-3-yl)pyrrolidine-3-carboxamide]	91.05	≥ 100	40.5	–	–
CC(C)N(C)[C@@H]1CC[C@H](N2CC[C@H](Nc3ncnc4ccc(C(F)(F)F)cc34)C2=O)[C@H](NC(=O)CCOCCNC(=O)CCCO[C@H]2CC[C@H](OCCNC(=O)[C@H]3CC(=O)N(C)[C@@H]3c3cccnc3)CC2)C1 [Example 7, (2S,3S)-N-(2-(((1r,4S)-4-(4-((2-(3-(((1R,2S,5R)-5-(Isopropyl(methyl)amino)-2-((S)-2-oxo-3-((6-(trifluoromethyl)quinazolin-4-yl)amino)pyrrolidin-1-yl)cyclohexyl)amino)-3-oxopropoxy)ethyl)amino)-4-oxobutoxy)cyclohexyl)oxy)ethyl)-1-methyl-5-oxo-2-(pyridin-3-yl)pyrrolidine-3-carboxamide]	47	13.7	95	–	–
CN1C(=O)C[C@H](C(=O)NCCO[C@H]2CC[C@H](OCCCC(=O)N[C@H]3CC[C@H](C(=O)N[C@@H]4C[C@H](NC(C)(C)C)CC[C@@H]4N4CC[C@H](Nc5ncnc6ccc(C(F)(F)F)cc56)C4=O)CC3)CC2)[C@H]1c1cccnc1 [Example 10, (2S,3S)-N-(2-(((1R,4S)-4-(4-(((1R,4R)-4-(((1R,2S,5R)-5-(tert-Butylamino)-2-((S)-2-oxo-3-((6-(trifluoromethyl)quinazolin-4-yl)amino)pyrrolidin-1-yl)cyclohexyl)carbamoyl)cyclohexyl)amino)-4-oxobutoxy)cyclohexyl)oxy)ethyl)-1-methyl-5-oxo-2-(pyridin-3-yl)pyrrolidine-3-carboxamide]	94.9	≥ 33.3	–	48	–
CC(C)N(C)[C@@H]1CC[C@H](N2CC[C@H](Nc3ncnc4ccc(C(F)(F)F)cc34)C2=O)[C@H](NC(=O)[C@H]2CC[C@@H](NC(=O)CCOCCOCCNC(=O)CCNC(=O)[C@H]3CC(=O)N(C)[C@@H]3c3cccnc3)CC2)C1 [Example 16, (2S,3S)-N-(3-((2-(2-(3-(((1S,4s)-4-(((1R,2S,5R)-5-(Isopropyl(methyl)amino)-2-((S)-2-oxo-3-((6-(trifluoromethyl)quinazolin-4-yl)amino)pyrrolidin-1-yl)cyclohexyl)carbamoyl)cyclohexyl)amino)-3-oxopropoxy)ethoxy)ethyl)amino)-3-oxopropyl)-1-methyl-5-oxo-2-(pyridin-3-yl)pyrrolidine-3-carboxamide]	74	≥ 100	47.8	–	–
CC(C)N(C)[C@@H]1CC[C@H](N2CC[C@H](Nc3ncnc4ccc(C(F)(F)F)cc34)C2=O)[C@H](NC(=O)[C@H]2CC[C@@H](NC(=O)CCCC(=O)NCCCOCCCNC(=O)[C@H]3CC(=O)N(C)[C@@H]3c3cccnc3)CC2)C1 [Example 18, N^1-((1S,4s)-4-(((1R,2S,5R)-5-(Isopropyl(methyl)amino)-2-((S)-2-oxo-3-((6-(trifluoromethyl)quinazolin-4-yl)amino)pyrrolidin-1-yl)cyclohexyl)carbamoyl)cyclohexyl)-N^5-(3-(3-((2S,3S)-1-methyl-5-oxo-2-(pyridin-3-yl)pyrrolidine-3-carboxamido)propoxy)propyl)glutaramide]	88	≥ 100	44.9	–	–
CC(C)N(C)[C@@H]1CC[C@H](N2CC[C@H](Nc3ncnc4ccc(C(F)(F)F)cc34)C2=O)[C@H](NC(=O)[C@H]2CC[C@H](NC(=O)CCCC(=O)NCCCOCCCNC(=O)[C@H]3CC(=O)N(C)[C@@H]3c3cccnc3)CC2)C1 [Example 19, N1-((1R,4r)-4-(((1R,2S,5R)-5-(Isopropyl(methyl)amino)-2-((S)-2-oxo-3-((6-(trifluoromethyl)quinazolin-4-yl)amino)pyrrolidin-1-yl)cyclohexyl)carbamoyl)cyclohexyl)-N5-(3-(3-((2S,3S)-1-methyl-5-oxo-2-(pyridin-3-yl)pyrrolidine-3-carboxamido)propoxy)propyl)glutaramide]	59	≥ 100	34.2	–	–
CN1C(=O)C[C@H](C(=O)NCCOCCOCCOCCC(=O)N[C@H]2CC[C@@H](C(=O)N[C@@H]3C[C@H](NC(C)(C)C)CC[C@@H]3N3CC[C@H](Nc4ncnc5ccc(C(F)(F)F)cc45)C3=O)CC2)[C@H]1c1cccnc1 [Example 23, (2S,3S)-N-(2-(2-(2-(3-(((1S,4s)-4-(((1R,2S,5R)-5-(tert-Butylamino)-2-((S)-2-oxo-3-((6-(trifluoromethyl)quinazolin-4-yl)amino)pyrrolidin-1-yl)cyclohexyl)carbamoyl)cyclohexyl)amino)-3-oxopropoxy)ethoxy)ethoxy)ethyl)-1-methyl-5-oxo-2-(pyridin-3-yl)pyrrolidine-3-carboxamide]	90.7	85.2	50.5	–	–
CC(C)N(C)[C@@H]1CC[C@H](N2CC[C@H](Nc3ncnc4ccc(C(F)(F)F)cc34)C2=O)[C@H](NC(=O)[C@H]2C[C@@H](NC(=O)CCOCCOCCOCCNC(=O)[C@H]3CC(=O)N(C)[C@@H]3c3cccnc3)C2)C1 [Example 24, (2S,3S)-N-(2-(2-(2-(3-(((1S,3s)-3-(((1R,2S,5R)-5-(Isopropyl(methyl)amino)-2-((S)-2-oxo-3-((6-(trifluoromethyl)quinazolin-4-yl)amino)pyrrolidin-1-yl)cyclohexyl)carbamoyl)cyclobutyl)amino)-3-oxopropoxy)ethoxy)ethoxy)ethyl)-1-methyl-5-oxo-2-(pyridin-3-yl)pyrrolidine-3-carboxamide]	89.47	85.3	59.5	–	–
CC(C)N(C)[C@@H]1CC[C@H](N2CC[C@H](Nc3ncnc4ccc(C(F)(F)F)cc34)C2=O)[C@H](NC(=O)CCOCCOCCOCCOCCOCCNC(=O)[C@H]2CC(=O)N(C)[C@@H]2c2cccnc2)C1 [Example 40, (2S,3S)-N-(18-(((1R,2S,5R)-5-(Isopropyl(methyl)amino)-2-((S)-2-oxo-3-((6-(trifluoromethyl)quinazolin-4-yl)amino)pyrrolidin-1-yl)cyclohexyl)amino)-18-oxo-3,6,9,12,15-pentaoxaoctadecyl)-1-methyl-5-oxo-2-(pyridin-3-yl)pyrrolidine-3-carboxamide]	–	≥ 10	–	–	24.7
CC(C)N(C)[C@@H]1CC[C@H](N2CC[C@H](Nc3ncnc4ccc(C(F)(F)F)cc34)C2=O)[C@H](NC(=O)CCOCCOCCOCCOCCOCCOCCNC(=O)[C@H]2CC(=O)N(C)[C@@H]2c2cccnc2)C1 [Example 41, (2S,3S)-N-(21-(((1R,2S,5R)-5-(isopropyl(methyl)amino)-2-((S)-2-oxo-3-((6-(trifluoromethyl)quinazolin-4-yl)amino)pyrrolidin-1-yl)cyclohexyl)amino)-21-oxo-3,6,9,12,15,18-hexaoxahenicosyl)-1-methyl-5-oxo-2-(pyridin-3-yl)pyrrolidine-3-carboxamide]	–	≥ 10	–	–	20.1
CC(C)N(C)[C@@H]1CC[C@H](N2CC[C@H](Nc3ncnc4ccc(C(F)(F)F)cc34)C2=O)[C@H](NC2CCN(C(=O)CCOCCOCCOCCOCCNC(=O)[C@H]3CC(=O)N(C)[C@@H]3c3cccnc3)CC2)C1 [Example 69, (2S,3S)-N-(15-(4-(((1R,2S,5R)-5-(Isopropyl(methyl)amino)-2-((S)-2-oxo-3-((6-(trifluoromethyl)quinazolin-4-yl)amino)pyrrolidin-1-yl)cyclohexyl)amino)piperidin-1-yl)-15-oxo-3,6,9,12-tetraoxapentadecyl)-1-methyl-5-oxo-2-(pyridin-3-yl)pyrrolidine-3-carboxamide]	98.59	–	–	–	–
